The results in this text go back to patent US20220211796A1, “PEPTIDE ANTIBIOTICS AND METHODS OF USE THEREOF” (priority 2019, published 2022).

Values after ≈ are worked out from the molar mass of the structure shown. Numbered stars: 1 amine (or outer) side, 2 acyl side, 3 side chain; on linkers, the order of the positions; unused ones are H or OH. Bridge positions count the residues as written; N and C are the ends. Square brackets hold non-standard residues; d marks the D form. Peptide text beside a SMILES is read from it. TBMB = c1c(C[*:1])cc(C[*:3])cc1C[*:2]

What all share (assay): microbe, parasite or virus in culture
Assay [1] concerns high level vancomycin resistant E. faecium (vanA) ATCC 51559. On the procedure:
(§1) The L-peptides identified from five different phage display libraries were catalogued as described previously and selected sequences were synthesized in D-enantiomeric form by SPPS for further investigation in several biological assays.
(§2) MICs were determined according to a 96-well microdilution protocol outlined by the Clinical and Laboratory Standard Institute (CLSI) guideline with modifications for peptide antibiotics reported by Wiegand et al.^35 Two-fold serial peptide dilutions were performed to go from 2560 μg/ml to 5 μg/ml in0.2% BSA and 0.01% acetic acid buffer in 96-well polypropylene plates (COSTAR, #3879). Dilution of bacterial suspensions (1:200) of different bacterial strains that were grown until 0.5 McFarland standard were prepared to obtain a final inoculum concentration of 8×10^5 CFU/ml in Mueller-Hinton broth.

Assay [2] relates to S. aureus ATCC 6538. How it is done: as §1, §2
For assay [3], the system named is B. subtilis ATCC 6633. How it is done:
as §1, §2

Assay [4] relates to low level vancomycin resistant E. faecium (vanB) ATCC 51299. How it is done:
as §1, §2

Assay [5] concerns E. faecalis ATCC 29121. How it is done: as §1, §2
In assay [6] the test system is E. coli ATCC 25992. On the procedure: as §1, §2
In assay [7] the test system is Methicillin-resistant S. aureus (MRSA) ATCC 43300. How it is done:
as §1, §2

The mark [8] stands for this setting: Table 5, low level vancomycin resistant E. faecium ATCC 51299.
Setting [9] is: Table 6, high level vancomycin resistant E. faecium ATCC51559.
The mark [10] stands for this setting: Table 6, low level vancomycin resistant E. faecium ATCC51299.

For `CC(C)C[C@H]1NC(=O)[C@H](N)CSSC[C@H](C(N)=O)NC(=O)[C@@H](Cc2c[nH]c3ccccc23)NC(=O)[C@@H](CCCCN)NC(=O)[C@@H](CCC(=O)O)NC(=O)CNC(=O)[C@@H](CC(C)C)NC(=O)[C@@H](CCCCN)NC1=O` [P9, CLKLGEKWC] (H-[dC][dL][dK][dL]G[dE][dK][dW][dC]-NH2; disulfide 1-9), the “MIC VRE (vanA)” value in assay [1] (ATCC 51559) was above 256 µg/mL. Further, the “MIC S. aureus” value in assay [2] (ATCC 6538) was 64 µg/mL (≈ 59.5 µM). The “MIC B. subtilis” value in assay [3] (ATCC 6633) turned out to be 32 µg/mL (≈ 29.7 µM). In assay [4] (setting [8]), the “MIC VRE (vanB)” value was above 256 µg/mL. The “MIC E. faecalis” value in assay [5] (ATCC 29121) came to 64 µg/mL (≈ 59.5 µM). Also, in assay [6] (ATCC 25992), the “MIC E. coli” value is above 256 µg/mL. Moreover, in assay [7] (ATCC 43300), the “MIC MRSA” value came out at 64 µg/mL (≈ 59.5 µM).
As for `CC[C@@H](C)[C@H]1NC(=O)[C@@H](CC(N)=O)NC(=O)[C@@H](CC(=O)O)NC(=O)[C@H](N)CSSC[C@H](C(N)=O)NC(=O)[C@@H](C(C)C)NC(=O)[C@H]2CCCN2C(=O)[C@@H]([C@H](C)O)NC(=O)[C@@H](CCSC)NC1=O` [P13, CDNIMTPVC] (H-[dC][dD][dN][dI][dM][dT][dP][dV][dC]-NH2; disulfide 1-9), the “MIC VRE (vanA)” value in assay [1] (ATCC 51559) is above 256 µg/mL. In addition, the “MIC S. aureus” value in assay [2] (ATCC 6538) was 64 µg/mL (≈ 64.5 µM). In assay [3] (ATCC 6633), the “MIC B. subtilis” value worked out at 64 µg/mL (≈ 64.5 µM). The “MIC VRE (vanB)” value in assay [4] (setting [8]) was above 256 µg/mL. Besides, the “MIC E. faecalis” value in assay [5] (ATCC 29121) was found to be 128 µg/mL (≈ 129 µM). Besides, the “MIC E. coli” value in assay [6] (ATCC 25992) is above 256 µg/mL. In addition, in assay [7] (ATCC 43300), the “MIC MRSA” value was determined as 64 µg/mL (≈ 64.5 µM).
As for `CSCC[C@H]1NC(=O)[C@@H](CC(=O)O)NC(=O)[C@H]2CSCc3cc(cc(c3)CSC[C@H](C(N)=O)NC(=O)[C@@H](Cc3c[nH]cn3)NC(=O)[C@@H](CC(C)C)NC1=O)CSC[C@@H](N)C(=O)N[C@H](CCC(N)=O)C(=O)N[C@H](Cc1ccc(O)cc1)C(=O)N[C@H](CC(N)=O)C(=O)N[C@H](CC(=O)O)C(=O)N2` [P16, COYNDCDMLHC] (H-[dC][dQ][dY][dN][dD][dC][dD][dM][dL][dH][dC]-NH2; linker 1-6-11 via TBMB), the “MIC VRE (vanA)” value in assay [1] (setting [9]) was above 256 µg/mL. Moreover, in assay [2] (Table 6, S. aureus ATCC6538), the “MIC S. aureus” value is 64 µg/mL (≈ 43.9 µM). In addition, the “MIC B. subtilis” value in assay [3] (Table 6, B. subtilis ATCC6633) worked out at 64 µg/mL (≈ 43.9 µM). In assay [4] (setting [10]), the “MIC VRE (vanB)” value is above 256 µg/mL. In addition, the “MIC E. faecalis” value in assay [5] (Table 6, E. faecalis ATCC29121) is 128 µg/mL (≈ 87.8 µM). Besides, in assay [6] (Table 6, E. Coli ATCC25992), the “MIC E. coli” value is above 256 µg/mL. The “MIC MRSA” value in assay [7] (Table 6, MRSA ATCC43300) was determined as 128 µg/mL (≈ 87.8 µM).
In the case of `CC(C)C[C@H]1NC(=O)[C@H](N)CSSC[C@H](C(N)=O)NC(=O)[C@@H]([C@H](C)O)NC(=O)[C@@H](C)NC(=O)CNC(=O)[C@@H]([C@H](C)O)NC(=O)[C@@H](CO)NC(=O)[C@@H](Cc2c[nH]c3ccccc23)NC1=O` [P12, CLWSTGATC] (H-[dC][dL][dW][dS][dT]G[dA][dT][dC]-NH2; disulfide 1-9), in assay [1] (ATCC 51559), the “MIC VRE (vanA)” value was above 256 µg/mL. In addition, the “MIC S. aureus” value in assay [2] (ATCC 6538) stood at 64 µg/mL (≈ 68.2 µM). Also, the “MIC B. subtilis” value in assay [3] (ATCC 6633) is 64 µg/mL (≈ 68.2 µM). For the same compound, the “MIC VRE (vanB)” value in assay [4] (setting [8]) is above 256 µg/mL. Further, the “MIC E. faecalis” value in assay [5] (ATCC 29121) is 128 µg/mL (≈ 136 µM). Moreover, the “MIC E. coli” value in assay [6] (ATCC 25992) was above 256 µg/mL. In addition, in assay [7] (ATCC 43300), the “MIC MRSA” value was determined as 64 µg/mL (≈ 68.2 µM).
Regarding `CC[C@@H](C)[C@H]1NC(=O)[C@@H](C(C)C)NC(=O)[C@H]2CSCc3cc(cc(c3)CSC[C@H](C(N)=O)NC(=O)[C@@H](CC(=O)O)NC1=O)CSC[C@@H](N)C(=O)N[C@H](CC(C)C)C(=O)N[C@H](CO)C(=O)N[C@H](CCC(N)=O)C(=O)N[C@H](Cc1ccccc1)C(=O)N2` [P17, CLSQFCVIDC] (H-[dC][dL][dS][dQ][dF][dC][dV][dI][dD][dC]-NH2; linker 1-6-10 via TBMB), in assay [1] (setting [9]), the “MIC VRE (vanA)” value is above 256 µg/mL. In assay [2] (Table 6, S. aureus ATCC6538), the “MIC S. aureus” value was 128 µg/mL (≈ 103 µM). In assay [3] (Table 6, B. subtilis ATCC6633), the “MIC B. subtilis” value stood at 128 µg/mL (≈ 103 µM). For the same compound, the “MIC VRE (vanB)” value in assay [4] (setting [10]) was above 256 µg/mL. Further, the “MIC E. faecalis” value in assay [5] (Table 6, E. faecalis ATCC29121) was above 256 µg/mL. In addition, in assay [6] (Table 6, E. Coli ATCC25992), the “MIC E. coli” value was above 256 µg/mL. In assay [7] (Table 6, MRSA ATCC43300), the “MIC MRSA” value was above 256 µg/mL.
Take `CC(C)C[C@@H](NC(=O)[C@H](NC(=O)[C@@H](Cc1ccc(O)cc1)NC(=O)[C@@H](CS)NC(=O)[C@@H](CS)NC(=O)[C@H](N)CCCCN)[C@H](C)O)C(=O)N1CCC[C@@H]1C(N)=O` [P5, KCCYTLP] (H-[dK][dC][dC][dY][dT][dL][dP]-NH2): the “MIC VRE (vanA)” value in assay [1] (ATCC 51559) is above 256 µg/mL. In assay [2] (ATCC 6538), the “MIC S. aureus” value stood at 128 µg/mL (≈ 155 µM). For the same compound, the “MIC B. subtilis” value in assay [3] (ATCC 6633) was determined as 128 µg/mL (≈ 155 µM). The “MIC VRE (vanB)” value in assay [4] (setting [8]) was above 256 µg/mL. Moreover, the “MIC E. faecalis” value in assay [5] (ATCC 29121) is above 256 µg/mL. For the same compound, the “MIC E. coli” value in assay [6] (ATCC 25992) was above 256 µg/mL. Moreover, in assay [7] (ATCC 43300), the “MIC MRSA” value is above 256 µg/mL.
